Measured values from PubChem BioAssay AID1918945 (Molecular Pharmacology Branch, DTP, NCI, 2023).

Test system: 883617-216-R-J1-PDC complex spheroid viability
Assay: Anticancer human tumor 883617-216-R-J1-PDC patient-derived bladder carcinoma cell line growth inhibition
Settings: for IC50: curve of first compound; for viability, T/C: stronger effect = lower value
Source text: Multicellular complex tumor spheroid response to LSD1 Inhibitor Iadademstat in combination with a variety of drugs and investigational agents in selected tumor cell lines
The current study was undertaken to assess response to LSD1 inhibitors in combination with standard-of-care drugs and investigational agents in solid tumor complex spheroid models as well as in the K-562 leukemia. Complex spheroids include a stromal component modeled by human endothelial cells (HUVEC) and fibroblasts modeled by human mesenchymal stem cells (MSCs). The concentration ranges selected for each drug and investigational agent were based upon clinically achievable concentrations if the clinical Cmax of the agent was known.
Compounds. The drugs and investigational agents used in this study are listed on Table 1. All of the agents used, including staurosporine (NSC755774) and gemcitabine (NSC613327), were obtained from the Developmental Therapeutics Program, NCI. FDA-approved anticancer drugs are available from the NCI at http://dtp.nci.nih.gov/branches/dscb/oncology_drugset_explanation.html. Drugs and investigational agents were >95% pure by proton nuclear magnetic resonance (NMR) and liquid chromatography/mass spectrometry (LC/MS). Stock solutions were prepared at 400x in DMSO, stored at -70 degrees C, and diluted in fresh medium prior to their use. The final concentration of DMSO in cell culture wells never exceeded 0.25% (v/v). The FDA-approved anticancer drug set is available from the Developmental Therapeutics Program at https://dtp.cancer.gov/organization/dscb/obtaining/available_plates.htm. All drugs and investigational agents were tested over a range starting from a high concentration at or near the clinical Cmax and decreasing in half-log increments. If the clinical Cmax for an agent had not been determined, the highest concentration tested was 10 microM.
Cell Lines. The patient-derived cancer cell (PDC) lines: 292921-168-R-J2-PDC, K24384-001-R-PDC, and 521955-158-R2-J5-PDC pancreatic carcinomas, 556581-035-R-J1 ovarian carcinoma, 324938-238-R-J1-PDC, 855422-203-R-J1-PDC and 883617-216-R-J1-PDC urothelial bladder carcinomas, 743489-274-T-PDC renal cell carcinoma, 138582-R-J1 Merkel cell tumor, K60290-347-R-J1 and K57222-313-R-J1-PDC glioblastomas, 653999-131-R-J2-PDC, LG0703-F948-PDC, and 349418-098-R-PDC non-small cell lung carcinomas, 885512-296-R-J2-PDC, 171881-019-R-J1-PDC breast carcinomas and 186277-243-T-J2-PDC and 233499-124-R-J2-PDC colon carcinomas were obtained from the NCI Patient-Derived Models Repository (PDMR, https://pdmr.cancer.gov). The established cell lines NCI/ADR-RES (RRID:CVCL_14520 and OVCAR-5 (RRID:CVCL_1628) ovarian carcinomas, 786-O (RRID:CVCL_1051) and A498 (RRID:CVCL_A498) renal cell carcinoma, NCI-H211 (ATCC, cat. CRL-5824; RRID:CVCL_1529), NCI-H196 (ATCC, cat. CRL-5823, RRID:CVCL_1509), SW 1271 (ATCC, cat. CRL-2177, RRID:CVCL_1716) and NCI-H1876 (ATCC, cat. CRL-5902, RRID:CVCL_1503) small cell lung carcinomas, MDA-MB-231 (RRID:CVCL_0062) and MDA-MB-468 (RRID:CVCL_0419)breast carcinomas (10-12). Pooled donor human umbilical vein endothelial cells (HUVEC, Lonza, cat. CC-2519) and human mesenchymal stem cells (hMSC, Lonza, cat. PT-2501) were purchased from Lonza (Walkersville, MD).
Cell Culture. All cells were maintained in an incubator at 37 degrees C and 5% CO2 with 95% humidity. The PDC lines were cultured according to standard operating procedures established by the NCI PDMR (https://pdmr.cancer.gov). Briefly all PDCs were thawed and cultured in Matrigel-coated flasks prepared with a working solution of 1X Ham's F-12 nutrient mix, without supplementation (Invitrogen, Waltham, MA, cat. 11765054), 100 U/mL penicillin-streptomycin (Invitrogen, cat. 15140122), and 2.5% Matrigel (Corning Inc., Corning, NY, cat. 354248) for the first three passages. […]

[1] = second compound 0.1 µM, first compound 0.0316 µM
[2] = second compound 0.1 µM, first compound 0.1 µM
[3] = second compound 0.1 µM, first compound 0.316 µM
[4] = second compound 0.1 µM, first compound 1 µM
[5] = second compound 0.316 µM, first compound 0.0316 µM
[6] = second compound 0.316 µM, first compound 0.1 µM
[7] = second compound 0.316 µM, first compound 0.316 µM
[8] = second compound 0.316 µM, first compound 1 µM
[9] = second compound 1 µM, first compound 0.0316 µM
[10] = second compound 1 µM, first compound 0.1 µM
[11] = second compound 1 µM, first compound 0.316 µM
[12] = second compound 1 µM, first compound 1 µM
[13] = second compound 3.16 µM, first compound 0.0316 µM
[14] = second compound 3.16 µM, first compound 0.1 µM
[15] = second compound 3.16 µM, first compound 0.316 µM
[16] = second compound 3.16 µM, first compound 1 µM
[17] = second compound 10 µM, first compound 0.0316 µM
[18] = second compound 10 µM, first compound 0.1 µM
[19] = second compound 10 µM, first compound 0.316 µM
[20] = second compound 10 µM, first compound 1 µM
[21] = second compound 0.1 µM, first compound 0.00316 µM
[22] = second compound 0.1 µM, first compound 0.01 µM
[23] = second compound 0.316 µM, first compound 0.00316 µM
[24] = second compound 0.316 µM, first compound 0.01 µM
[25] = second compound 1 µM, first compound 0.00316 µM
[26] = second compound 1 µM, first compound 0.01 µM
[27] = second compound 3.16 µM, first compound 0.00316 µM
[28] = second compound 3.16 µM, first compound 0.01 µM
[29] = second compound 10 µM, first compound 0.00316 µM
[30] = second compound 10 µM, first compound 0.01 µM
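Further: exposure lasted seven days after three days of spheroid growth.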
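Wherever viability, T/C is given: 100% = DMSO vehicle control luminescence.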

Compound	IC50 (second compound 0.1 µM)	IC50 (second compound 0.316 µM)	IC50 (second compound 1 µM)	IC50 (second compound 3.16 µM)	IC50 (second compound 10 µM)	viability, T/C [1]	viability, T/C [2]	viability, T/C [3]	viability, T/C [4]	viability, T/C [5]	viability, T/C [6]	viability, T/C [7]	viability, T/C [8]	viability, T/C [9]	viability, T/C [10]	viability, T/C [11]	viability, T/C [12]	viability, T/C [13]	viability, T/C [14]	viability, T/C [15]	further results
COc1ccc([C@@H](O)c2cc(-c3ncnc4cc(N5CCOCC5)ccc34)c(F)cc2Cl)nn1 + NC1CCC(NC2CC2c2ccccc2)CC1	1200 nM	1370 nM	1320 nM	1080 nM	1560 nM	97.8%	90.3%	72%	50.2%	103%	90.8%	73.6%	53.2%	101%	91.3%	83.2%	52.7%	97.6%	93.2%	73.7%	viability, T/C (second compound 0.1 µM, first compound 3.16 µM): 38.2%; viability, T/C (second compound 0.1 µM, first compound 10 µM): 20.7%; viability, T/C (second compound 0.316 µM, first compound 3.16 µM): 38.5%; viability, T/C (second compound 0.316 µM, first compound 10 µM): 19.2%; viability, T/C (second compound 1 µM, first compound 3.16 µM): 35.1%; viability, T/C (second compound 1 µM, first compound 10 µM): 21%; viability, T/C [16]: 51.7%; viability, T/C (second compound 3.16 µM, first compound 3.16 µM): 32.1%; viability, T/C (second compound 3.16 µM, first compound 10 µM): 21.9%; viability, T/C [17]: 100%; viability, T/C [18]: 93.2%; viability, T/C [19]: 70.2%; viability, T/C [20]: 56.3%; viability, T/C (second compound 10 µM, first compound 3.16 µM): 41.4%; viability, T/C (second compound 10 µM, first compound 10 µM): 19.8%
O=C(C=Cn1cnc(-c2cc(C(F)(F)F)cc(C(F)(F)F)c2)n1)NNc1cnccn1 + NC1CC1c1ccc(-c2cccc(O)c2)cc1	6.13 nM	5.37 nM	5.18 nM	5.05 nM	4.37 nM	23.8%	17.6%	15.6%	15.6%	19.1%	14.8%	16%	14.3%	18.4%	15.9%	16.3%	15.5%	17.5%	16%	14.6%	viability, T/C [21]: 76.8%; viability, T/C [22]: 28.8%; viability, T/C [23]: 65.9%; viability, T/C [24]: 31.3%; viability, T/C [25]: 66.5%; viability, T/C [26]: 28.1%; viability, T/C [27]: 65.1%; viability, T/C [28]: 28.1%; viability, T/C [16]: 14.3%; viability, T/C [29]: 60%; viability, T/C [30]: 24.8%; viability, T/C [17]: 18.2%; viability, T/C [18]: 15.1%; viability, T/C [19]: 15.4%; viability, T/C [20]: 15.8%
CC1COCCN1c1cc(-c2ccnn2C)c2ccnc(-c3ccn[nH]3)c2n1 (stereo not given) + NC1CCC(NC2CC2c2ccccc2)CC1	39.5 nM	32.1 nM	33.8 nM	44.3 nM	45.8 nM	55.7%	41.2%	33.5%	31.5%	53.6%	40.4%	34%	30.8%	50.4%	43.8%	35.1%	28.4%	51.3%	47.2%	36.1%	viability, T/C [21]: 85%; viability, T/C [22]: 62.2%; viability, T/C [23]: 89.8%; viability, T/C [24]: 62%; viability, T/C [25]: 81.8%; viability, T/C [26]: 60.2%; viability, T/C [27]: 76.3%; viability, T/C [28]: 59%; viability, T/C [16]: 28.3%; viability, T/C [29]: 88.4%; viability, T/C [30]: 66.7%; viability, T/C [17]: 52.7%; viability, T/C [18]: 45.5%; viability, T/C [19]: 32.1%; viability, T/C [20]: 25.5%
